Experimental data: patent publication US9771592B2, “Methods and compositions for treating or preventing pruritis” (The Johns Hopkins University, priority 2008, dated 2017)
Several values for one entry are separate records, joined by “and”; a condition that tells them apart may be missing. Equal entries are not always repeated. Where two headings read alike, the source gives them in different places.

Tests used:
MrgprA4 = target: T1, MrgprA4 (Mus musculus, UniProt Q91WW2); assay: Calcium imaging of HEK293 cells transfected with Mrgpr-GFP constructs; format: cell-based; conditions: NPFF 2 μM
T1 construct: expressed in transfected cells; host or cells: HEK293
T1 sequence (Q91WW2 1-313): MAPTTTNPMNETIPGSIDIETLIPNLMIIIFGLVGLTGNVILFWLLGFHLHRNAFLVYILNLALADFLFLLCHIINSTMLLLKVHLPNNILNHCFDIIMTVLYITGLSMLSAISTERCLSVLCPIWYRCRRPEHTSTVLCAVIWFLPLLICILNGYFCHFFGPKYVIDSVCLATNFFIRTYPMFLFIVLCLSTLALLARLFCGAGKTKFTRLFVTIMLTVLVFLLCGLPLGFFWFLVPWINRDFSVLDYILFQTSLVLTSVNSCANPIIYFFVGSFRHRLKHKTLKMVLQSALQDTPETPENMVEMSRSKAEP
Text: (§1) Each of the twelve Mrgprs that were deleted in Mrgpr-clusterΔ^−/− mice were cloned into a mammalian expression vector (FIG. 1A), and transfected individually into human embryonic kidney (HEK) 293 cells. By fusing green fluorescent protein (GFP) to the C-termini of the Mrgpr coding sequences, both transfected cells and the proper membrane localization of the receptors was visualized. […] Increased [Ca^2+]i resulting from activation of the receptors was monitored by calcium imaging.
(§2) HEK293 cells were transfected with Mrgpr-expression constructs using Lipofectamine 2000 (Invitrogen) according to the manufacturer's protocol.

MrgprA3 [1] = target: T2, MrgprA3 (Mus musculus, UniProt Q91WW3); assay: as above; format: cell-based; parameters: expressed in transfected cells; host or cells: HEK293
T2 sequence (Q91WW3 1-302): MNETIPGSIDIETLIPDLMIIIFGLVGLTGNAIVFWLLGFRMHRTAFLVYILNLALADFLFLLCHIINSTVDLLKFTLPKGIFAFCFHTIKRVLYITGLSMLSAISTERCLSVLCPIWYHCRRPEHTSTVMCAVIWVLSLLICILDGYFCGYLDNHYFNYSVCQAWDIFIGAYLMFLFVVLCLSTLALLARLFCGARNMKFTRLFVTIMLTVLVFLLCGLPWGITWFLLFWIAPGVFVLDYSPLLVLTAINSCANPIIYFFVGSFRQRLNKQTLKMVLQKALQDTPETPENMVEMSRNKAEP
Text: as §1
(§3) Serotonin also has a bicyclic structure. […] Quinine is another drug used to treat malaria and its side effects also include itch. However, it is unclear if quinine-induced itch is an allergic response.
(§4) HEK293 cells were cultured in growth medium consisted of 90% DMEM, 10% fetal bovine serum, 100 U/ml penicillin, and 100 μg/ml Streptomycin (Invitrogen) at 37° C. in the presence of […] and 5% CO2. HEK293 cells were transfected with Mrgpr-expression constructs using Lipofectamine 2000 (Invitrogen) according to the manufacturer's protocol.

DRG neurons [2] = assay: Calcium imaging of cultured dissociated DRG neurons; format: cell-based, mouse; conditions: for effect on CQ-induced [Ca2+]i increase: WT DRG neurons; for DRG neurons responding: Mrgpr-clusterΔ-/- mice
Experimental: Dorsal root ganglia from all spinal levels of 4-week old mice or rats were collected in cold DH10 (90% DMEM/F-12, 10% FBS, 100 U/ml penicillin, and 100 μg/ml Streptomycin, Gibco) and treated with enzyme solution (5 mg/ml Dispase, 1 mg/ml Collagenase Type I in HPBS without Ca^++ and Mg^++, Gibco) at 37° C. Following trituration and centrifugation, cells were resuspended in DH10, plated on glass cover slips coated with poly-D-lysine (0.5 mg/ml, Stoughton, Mass.) and laminin (10 μg/ml, Invitrogen), cultured in an incubator (95% O2 and 5% CO2) at 37° C. and used within 24 hours.

MrgprX1 [3] = target: T3, MrgprX1 (Homo sapiens, UniProt Q96LB2); assay: Calcium imaging of HEK293 cells transfected with Mrgpr-GFP constructs; format: cell-based; conditions: for activation of MrgprX1 (increased [Ca2+]i): BAM8-22 2 μM
T3 sequence (Q96LB2 whole entry): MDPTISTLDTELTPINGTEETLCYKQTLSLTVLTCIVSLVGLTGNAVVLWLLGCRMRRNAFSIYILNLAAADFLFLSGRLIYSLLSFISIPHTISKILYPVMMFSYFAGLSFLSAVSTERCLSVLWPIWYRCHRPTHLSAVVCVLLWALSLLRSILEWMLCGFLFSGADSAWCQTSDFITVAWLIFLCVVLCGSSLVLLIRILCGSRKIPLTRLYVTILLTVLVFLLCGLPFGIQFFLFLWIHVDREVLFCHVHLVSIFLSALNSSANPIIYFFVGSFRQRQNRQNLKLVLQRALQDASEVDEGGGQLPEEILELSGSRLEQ
Experimental: (§5) The human Mrgpr family (i.e. MrgprXs) is much smaller than the murine family.
as §3, §4

MrgprC11 = target: T4, MrgprC11 (Mus musculus, UniProt Q8CIP3); assay: as above; format: cell-based; conditions: BAM8-22 2 μM
T4 construct: expressed in transfected cells; host or cells: HEK293
T4 sequence (Q8CIP3 1-322): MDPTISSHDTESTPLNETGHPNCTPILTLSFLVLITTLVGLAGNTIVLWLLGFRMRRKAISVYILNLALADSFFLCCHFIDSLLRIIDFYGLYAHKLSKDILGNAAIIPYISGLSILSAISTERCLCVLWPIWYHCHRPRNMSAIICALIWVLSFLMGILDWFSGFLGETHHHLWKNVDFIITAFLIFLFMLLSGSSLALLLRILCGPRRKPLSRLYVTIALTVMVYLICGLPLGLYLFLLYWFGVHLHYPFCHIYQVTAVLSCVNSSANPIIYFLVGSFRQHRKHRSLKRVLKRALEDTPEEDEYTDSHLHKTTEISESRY
Text: as §1, §2

MrgprX1 [4] = target: T3, MrgprX1; assay: Rescue: Mrgpr-clusterΔ-/- DRG neurons electroporated with Mrgpr construct; format: cell-based, mouse
Experimental: (§6) To determine whether MrgprA3 or MrgprX1 can rescue the phenotypes of DRG neurons from Mrgpr-clusterΔ^−/− mice, the Mrgpr expression constructs used in the heterologous studies were electroporated into dissociated adult DRG neurons from these mice. After 24 hour in culture, expression and membrane localization of the transfected Mrgprs in the mutant neurons could be readily visualized by GFP (FIG. 8G).

rat MrgprC = target: T5, rat MrgprC (Rattus norvegicus, UniProt Q8R4G1); assay: Rescue: Mrgpr-clusterΔ-/- DRG neurons electroporated with rat Mrgpr, calcium imaging
T5 sequence (Q8R4G1 1-323): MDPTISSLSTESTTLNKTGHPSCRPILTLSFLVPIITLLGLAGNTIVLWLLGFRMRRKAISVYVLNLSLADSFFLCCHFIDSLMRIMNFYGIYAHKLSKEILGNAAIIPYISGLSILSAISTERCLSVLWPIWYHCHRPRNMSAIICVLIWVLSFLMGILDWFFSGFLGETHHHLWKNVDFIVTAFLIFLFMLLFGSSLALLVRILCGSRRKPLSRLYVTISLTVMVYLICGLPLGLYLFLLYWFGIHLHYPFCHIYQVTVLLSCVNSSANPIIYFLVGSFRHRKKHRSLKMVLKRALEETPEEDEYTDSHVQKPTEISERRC

mice = assay: Scratching behavior after pruritogen injection in mice; format: in vivo, mouse; conditions: for scratching in Mrgpr-clusterΔ-/- mice compared with WT: 30 min, histamine 10 μmol, compound 48/80 100 μg/50 μl, CQ 200 μg/50 μl, BAM8-22 50 μl of 1 mM; for total number of scratching bouts: first 30 min after CQ injection (200 μg/50 μl, 8 mM)
Text: Kuraishi et al., (1995). […] F. (2007) Nature 448, 700-703).

rats = assay: Scratching behavior after intradermal injection in rats; conditions: 500 μg/50 μl, first 30 min
histamine H1 receptor = histamine H1 receptor (Homo sapiens, UniProt P35367); conditions: HEK293 cells; histamine 50 μM
Sequence of histamine H1 receptor (P35367 whole entry, species assumed): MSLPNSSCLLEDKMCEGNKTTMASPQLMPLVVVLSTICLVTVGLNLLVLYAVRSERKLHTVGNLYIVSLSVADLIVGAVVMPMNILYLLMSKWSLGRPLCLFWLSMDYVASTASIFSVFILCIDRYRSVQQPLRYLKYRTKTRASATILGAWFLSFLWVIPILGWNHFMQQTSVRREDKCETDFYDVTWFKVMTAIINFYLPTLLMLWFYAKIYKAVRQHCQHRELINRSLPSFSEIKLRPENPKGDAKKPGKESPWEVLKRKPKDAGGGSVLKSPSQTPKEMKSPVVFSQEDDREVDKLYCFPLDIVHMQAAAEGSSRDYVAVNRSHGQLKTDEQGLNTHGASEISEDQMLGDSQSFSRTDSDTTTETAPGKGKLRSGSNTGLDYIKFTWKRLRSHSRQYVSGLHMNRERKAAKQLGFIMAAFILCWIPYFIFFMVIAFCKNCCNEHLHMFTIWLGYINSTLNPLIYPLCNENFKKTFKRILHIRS
Text: as §1, §4

MrgprA1 [5] = target: T6, MrgprA1 (Mus musculus, UniProt Q91WW5); assay: Rescue: Mrgpr-clusterΔ-/- DRG neurons electroporated with Mrgpr construct; format: cell-based; parameters: expressed in transfected cells; host or cells: dissociated adult DRG neurons of Mrgpr-cluster-deleted mice
T6 sequence (Q91WW5 1-304): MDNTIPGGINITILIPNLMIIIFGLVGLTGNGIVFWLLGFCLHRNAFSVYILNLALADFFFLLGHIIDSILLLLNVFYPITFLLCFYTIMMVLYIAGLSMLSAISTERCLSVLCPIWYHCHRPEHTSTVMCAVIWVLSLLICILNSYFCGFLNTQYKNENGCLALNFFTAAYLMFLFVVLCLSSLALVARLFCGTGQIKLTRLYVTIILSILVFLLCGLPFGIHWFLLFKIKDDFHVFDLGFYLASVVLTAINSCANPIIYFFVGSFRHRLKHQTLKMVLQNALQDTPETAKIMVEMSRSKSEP
Experimental: as §6

MrgprA1 [6] = target: T6, MrgprA1; assay: Calcium imaging of HEK293 cells transfected with Mrgpr-GFP constructs; format: cell-based; parameters: expressed in transfected cells; conditions: CQ 1 mM, FMRF 2 μM
Text: as §1, §2

[7] = cited from earlier work
DRG neurons [8] = assay: Whole-cell current-clamp recording of action potentials in DRG neurons; format: cell-based, mouse; conditions: CQ 1 mM
Text: To determine whether CQ can directly induce action potentials (APs) in dissociated DRG neurons, using whole-cell patch clamp recording. […] These studies provide strong evidence that CQ can directly excite a small subpopulation of sensory neurons in DRG and that Mrgprs are required for this effect. Similar to the mouse results, CQ induces robust activation in a subset of rat DRG neurons as determined by both an increase in [Ca^2+]i and generation of APs (FIG. 4).
Patch pipettes had resistances of 2-4 MΩ. […] All experiments were performed at room temperature ([…]).

MrgprX2 = target: T7, MrgprX2 (Homo sapiens, UniProt Q96LB1); assay: Calcium imaging of transfected HEK293 cells; format: cell-based
T7 construct: expressed in transfected cells; host or cells: HEK293
T7 sequence (Q96LB1 1-330): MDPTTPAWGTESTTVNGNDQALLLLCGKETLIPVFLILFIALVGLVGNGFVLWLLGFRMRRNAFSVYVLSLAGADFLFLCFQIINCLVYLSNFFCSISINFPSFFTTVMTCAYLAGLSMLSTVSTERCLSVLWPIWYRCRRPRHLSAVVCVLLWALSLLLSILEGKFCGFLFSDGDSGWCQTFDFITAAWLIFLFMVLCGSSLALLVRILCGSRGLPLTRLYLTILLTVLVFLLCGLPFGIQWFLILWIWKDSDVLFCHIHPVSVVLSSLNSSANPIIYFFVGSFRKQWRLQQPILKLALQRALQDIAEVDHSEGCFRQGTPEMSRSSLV
Text: as §5

MrgprX3 = target: T8, MrgprX3 (Homo sapiens, UniProt Q96LB0); assay: Calcium imaging of transfected HEK293 cells; format: cell-based
T8 construct: expressed in transfected cells; host or cells: HEK293
T8 sequence (Q96LB0 whole entry): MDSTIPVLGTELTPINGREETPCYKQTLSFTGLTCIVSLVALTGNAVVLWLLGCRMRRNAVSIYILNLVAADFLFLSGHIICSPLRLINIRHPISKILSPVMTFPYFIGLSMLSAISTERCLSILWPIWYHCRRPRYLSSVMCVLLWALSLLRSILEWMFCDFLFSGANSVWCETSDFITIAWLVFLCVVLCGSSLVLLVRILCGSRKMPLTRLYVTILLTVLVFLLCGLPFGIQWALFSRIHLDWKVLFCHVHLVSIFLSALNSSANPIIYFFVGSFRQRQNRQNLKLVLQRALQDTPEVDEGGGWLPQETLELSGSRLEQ
Text: as §5

[9] = cited from earlier work; remark: listed apart in the source
MrgprA3 [10] = target: T2, MrgprA3; assay: Rescue: Mrgpr-clusterΔ-/- DRG neurons electroporated with Mrgpr construct; format: cell-based
Experimental: as §6

## NPFF: mammalian neuropeptide FF, peptide agonist of MrgprA4
MrgprA4
  response of MrgprA4-expressing cells: respond

## NCCc1c[nH]c2ccc(O)cc12 [Serotonin]
MrgprA3 [1]; 100 μM
  activation of MrgprA3: failed to activate

## O=C(O)CN(CCOCCOCCN(CC(=O)O)CC(=O)O)CC(=O)O [EGTA]
DRG neurons [2]
  effect on CQ-induced [Ca2+]i increase: almost completely blocked

## BAM8-22: bovine adrenal medulla peptide; MrgprC11-specific agonist (VGRPEWWMDYQKRYG)
MrgprA3 [1]
  activation of MrgprA3 (increased [Ca2+]i): did not respond
MrgprX1 [3]
  activation of MrgprX1 (increased [Ca2+]i): responded
DRG neurons [2]
  DRG neurons responding: no DRG neurons
MrgprC11
  response of MrgprC11-expressing cells: responded
MrgprX1 [4]
  [Ca2+]i response of MrgprX1-electroporated mutant neurons: sensitivity
Rat MrgprC; BAMS-22 10 μM
  response of rat MrgprC-electroporated Mrgpr-deficient neurons: responded
mice
  scratching in Mrgpr-clusterΔ-/- mice compared with WT: dramatic reduction
mice; WT mice, intradermal injection, 50 μl of 1 mM
  scratching behavior evoked: induced strong scratching behavior

## c1ccc2ncccc2c1 [quinoline]
MrgprA3 [1]
  activation of MrgprA3 (increased [Ca2+]i): completely failed to activate
MrgprX1 [3]
  activation of MrgprX1 (increased [Ca2+]i): completely failed to activate
rats
  scratching responses: did not
mice; both WT and mutant mice
  scratching behavior evoked: did not evoke any scratching behavior

## NCCc1c[nH]cn1 [histamine]
MrgprA3 [1]
  activation of MrgprA3 (increased [Ca2+]i): did not respond
DRG neurons [2]; histamine 50 μM
  percentage of DRG neurons responding, WT versus mutant cultures: identical
Histamine H1 receptor
  response of histamine H1 receptor-expressing cells: strong response
mice
  scratching in Mrgpr-clusterΔ-/- mice compared with WT: No significant difference

## CCN(CC)CCCC(C)Nc1ccnc2cc(Cl)ccc12 (stereo not shown) [CQ, Chloroquine]
MrgprA3 [1]
  activation of MrgprA3 (increased [Ca2+]i): strong response
MrgprA3 [1]; dose-response, calcium imaging
  EC50: 27.6 ± 2.03 µM
MrgprX1 [3]
  activation of MrgprX1 (increased [Ca2+]i): responded
MrgprX1 [3]; dose-response, calcium imaging
  EC50: 297.7 ± 2.1 µM
MrgprA1 [5]
  MrgprA1-electroporated neurons eliciting a few APs: 3 out of 7
  [Ca2+]i response of MrgprA1-electroporated mutant neurons: only a small portion responded
MrgprA1 [6]
  response of MrgprA1-transfected cells (increased [Ca2+]i): fewer than half of MrgprA1-tranfected cells responded
[7]; plasma
  concentration in patient plasma: micromolar range
[7]; skin
  concentration reached in skin and other pigmented tissues: high micromolar to millimolar concentrations
DRG neurons [8]; Mrgpr-clusterΔ-/- mice
  neurons showing any response: none of 11
DRG neurons [8]; WT DRG
  action potentials in CQ-sensitive neurons: displayed a train of APs
MrgprX2
  response of MrgprX2-expressing cells: completely insensitive
MrgprX3
  response of MrgprX3-expressing cells: completely insensitive
DRG neurons [2]
  DRG neurons responding: none of the neurons
DRG neurons [2]; WT mice, CQ 1 mM, BAM8-22 2 μM
  percentage of DRG neurons responding with increased [Ca2+]i: ~4.4% and 4-5%
DRG neurons [2]; WT neurons
  reduction of calcium responses on sequential application: ~20%
[9]; African patients
  patients refusing further treatment because of unbearable itch: ~30%
[9]; black Africans
  incidence of itch as side effect: up to 70%
MrgprC11
  response of MrgprC11-expressing cells: failed to respond
MrgprA4
  response of MrgprA4-expressing cells: insensitive
MrgprX1 [4]
  MrgprX1-electroporated GFP-positive neurons generating a train of APs: 5 out of 7
  [Ca2+]i response of MrgprX1-electroporated mutant neurons: sensitivity
MrgprA3 [10]
  [Ca2+]i response of MrgprA3-expressing mutant neurons: showed increased [Ca^2+]i
  action potentials in MrgprA3-expressing mutant neurons: generated numerous APs
rats
  scratching responses: evoked profound scratching responses
Rat MrgprC
  response of rat MrgprC-electroporated Mrgpr-deficient neurons: did not
mice; Mrgpr-clusterΔ-/- (KO) mice
  occurrence of the first scratching behavior: 280.5 ± 35.0 s
mice; Mrgpr-clusterΔ-/- mice
  total number of scratching bouts: 104±13
mice; WT mice
  occurrence of the first scratching behavior: 57.8 ± 25.4 s
  time at which scratching peaked: ≤ 15 min
  total number of scratching bouts: 278±21
mice; WT mice, typical
  first bout observed after injection: 1 to 2 min

## N.N.N.N.N.N.N.N.N.N.N.N.N.N.[Cl-].[Cl-].[Cl-].[Cl-].[Cl-].[Cl-].[O-2].[O-2].[Ru+3].[Ru+3].[Ru+4] [Ruthenium red]
DRG neurons [2]
  effect on CQ-induced [Ca2+]i increase: severely attenuated

## C=C[C@H]1C[N@@]2CC[C@H]1C[C@H]2[C@H](O)c1ccnc2ccc(OC)cc12 [quinine]
MrgprA3 [1]
  activation of MrgprA3 (increased [Ca2+]i): weakly activates

## FMRF: molluscan FMRFamide, peptide agonist of MrgprA1
MrgprA1 [5]; FMRF 2 μM
  [Ca2+]i response of MrgprA1-electroporated mutant neurons: strong response
MrgprA1 [6]
  response of MrgprA1-transfected cells (increased [Ca2+]i): all transfected cells responded
